# Patent US20180200233A1, “COMPOSITIONS FOR PREVENTING CANCERS ASSOCIATED WITH HUMAN PAPILLOMA VIRUSES” (Loma Linda University, priority 2015, published 2018)
# Legend:
# SiHa cells = assay: MTT cell viability, SiHa cells, TRAIL-induced apoptosis; assay type: cell-based, human; settings: for increase in cell death in the presence than in the absence of TRAIL: from the EC50 values of Table 2; for concentration required to inhibit binding and to sensitize cells: cell sensitization experiments
# Experimental: (§1) FIGS. 3A-E are graphs providing data regarding resistance of HPV^+ SiHa cells to TRAIL-, cisplatin- and […] apoptosis, in the presence and absence of small molecules as disclosed herein. (FIG. 3A) HPV^+ SiHa cells are resistant to TRAIL-induced apoptosis as compared to the human osteosarcoma cell line U2OS. Cells (2×10^4 cells per well) were seeded into a 96-well plate, allowed to incubate overnight, and then treated with indicated concentration of TRAIL in the presence of cycloheximide (5 μg/ml). The viability of cells was measured after overnight incubation using the MTT assay; the viability of cells untreated with TRAIL was set at 100% for each group. (FIG. 3B) The indicated concentrations of three small molecules were added to SiHa cells, and an MTT assay was preformed after overnight incubation. The viability of cells untreated with small molecules was set as 100%. (FIG. 3C) The indicated concentrations of myricetin or spinacine were added 4 h prior to TRAIL (100 ng/ml) in the presence of cycloheximide (5 μg/ml) and incubated at 37° C. overnight. The viability of cells untreated with small molecules was set at 100%. (FIG. 3D and FIG. 3E) SiHa cells (2×10^4 cells per well) were seeded into a 96-well plate and allowed to incubate overnight. 100 μM of myricetin and 50 μM of spinacine were added 4 h prior to either (FIG. 3D) doxorubicin or (FIG. 3E) cisplatin. Cell viability was measured after overnight incubation using the MTT assay, and the viability of cells untreated with either myricetin or spinacine was set at 100%. Experiments were performed in triplicate, and error bars indicate the standard deviation.
# FIGS. 5A-B are graphs showing myricetin and spinacine (5) re-sensitized HPV^+, but not HPV^−, cells to treatment with TRAIL. SiHa (2×10^4 cells per well) and C33A cells (1×10^4 cells per well) were seeded into a 96-well plate and allowed to incubate overnight, then cells were pre-treated in the presence or absence of myricetin (100 μM) (FIG. 5A) or spinacine (50 μM) (FIG. 5B) for 4 h. The indicated concentration of TRAIL, along with cycloheximide (5 μg/ml) was added and cells were allowed to incubate overnight. Cell viability was measured by MTT assay, and the viability of cells untreated with TRAIL was set at 100%. Experiments were performed in triplicate, and error bars indicate the standard deviation.
# (§2) The molecules were then tested to determine whether those that block E6/caspase 8 binding in vitro could also act in the context of a cell. SiHa cells are an HPV^+ cell line, derived from a cervical carcinoma, which serves as a commonly used model for HPV-associated malignancies. To determine whether HPV^+ SiHa cells are resistant to TRAIL-induced apoptosis, SiHa cells were treated with TRAIL and cell viability was assessed. TRAIL-sensitive, HPV^− U2OS cells served as a positive control. […] Myricetin and/or spinacine were tested to determine if they could sensitize these HPV^+ cells to TRAIL-induced apoptosis. […] Table 2 lists and compares the concentrations of the three tested compounds required to induce death in 50% of SiHa cells in the presence or absence of TRAIL.
# The extracellular domain of human TRAIL was cloned into a pTriEx expression plasmid containing N-terminal Hisx6 tag. His-TRAIL was expressed in the E. coli BL-21 pLys strain and purified as previously described. Doxorubicin and cisplatin were purchased from Sigma. His-TRAIL, doxorubicin, and cisplatin were diluted in PBS to the desired concentration before using. To measure cell survival following treatment with TRAIL, cisplatin and doxorubicin, SiHa (2×10^4/well), C33A (1×10^4/well), and HNSCC cells (2×10^4/well) were seeded into 96-well plates and allowed to adhere overnight. Small molecules at the desired concentration were added and incubated at 37° C. for 4 h. As indicated, TRAIL, cisplatin or doxorubicin was then added. […]
# in vitro = assay type: cell-based, human; settings: human
# Experimental: as §1, §2
# The extracellular domain of human TRAIL was cloned into a pTriEx expression plasmid containing N-terminal Hisx6 tag. His-TRAIL was expressed in the E. coli BL-21 pLys strain and purified as previously described. Doxorubicin and cisplatin were purchased from Sigma. His-TRAIL, doxorubicin, and cisplatin were diluted in PBS to the desired concentration before using. To measure cell survival following treatment with TRAIL, cisplatin and doxorubicin, SiHa (2×10^4/well), C33A (1×10^4/well), and HNSCC cells (2×10^4/well) were seeded into 96-well plates and allowed to adhere overnight. Small molecules at the desired concentration were added and incubated at 37° C. for 4 h. As indicated, TRAIL, cisplatin or doxorubicin was then added. […] All experiments were repeated at least three times (three biological replicates, carried out on different days), with each experimental group measured in triplicate within each of these individual experiments. […]
Compound,"EC50 for TRAIL-induced apoptosis (SiHa cells; SiHa cells, compound added 4 h prior to TRAIL 100 ng/ml + cycloheximide 5 μg/ml, overnight, MTT)",EC50 (in vitro) [µM],increase in cell death in the presence than in the absence of TRAIL (SiHa cells; SiHa cells) [fold],concentration required to inhibit binding and to sensitize cells (SiHa cells) [µM],"sensitivity of SiHa cells to TRAIL after pre-treatment (in words) (SiHa cells; 100 μM myricetin or 50 μM spinacine for 4 h, TRAIL up through 100 ng/ml)"
"OCn1cnc2ccccc21 [Compound 3, 1H-benzimidazole-1-methanol]",No sensitization,285,–,–,–
"O=C(O)C1Cc2[nH]cnc2CN1 (stereo not drawn) [Compound 5, 4,5,6,7-Tetrahydro-1H-imidazo(4,5-c)pyridine-6-carboxylic acid]",–,268,8.6,50,–
"O=c1c(O)c(-c2cc(O)c(O)c(O)c2)oc2cc(O)cc(O)c12 [Myricetin, reference compound]",–,539,3.5,100,sensitivity increased dramatically
